Laboratory results reported in patent publication US9096543B2, “Nuclear transport modulators and uses thereof” (Karyopharm Therapeutics Inc., priority 2012, dated 2015).

Experiments:
[1] = Pharmacokinetics (plasma AUC) in rats; type: in vivo; details: rat, 10 mg/kg po
[2] = Brain to plasma ratio (B:P) in rats; type: in vivo; details: 10 mg/kg po
Experimental: Brain tissue following collection was rinsed with cold saline, dried on filter paper, weighed and snap-frozen by placing on dry ice. All samples were stored frozen at approximately −80° C. until analysis. […] Plasma samples were treated with the identical method (except homogenization step) and concentration of compound in either matrix was calculated based on the generated standard curves.

[3] = MTT Cell Proliferation Assay (CellTiter 96 AQueous One Solution, MTS); type: cell-based; details: human; 72 h treatment; cell line not given; read-out: Cytotoxicity [IC50]
From the text: The CellTiter 96® AQueous One Solution cell proliferation assay (Promega) was used on MM1.S, Jurkat and HCT-116 cells to study the cytotoxic and cytostatic properties of the compounds. The assay is based on the cleavage of the tetrazolium salt, MTS, in the presence of an electron-coupling reagent PES (phenazine ethosulfate). The MTS tetrazolium compound is bioreduced by cells into a colored formazan product that is soluble in tissue culture medium. This conversion is presumably accomplished by NADPH or NADH produced by dehydrogenase enzymes in metabolically active cells. Assays are performed by adding a small amount of the CellTiter 96® AQueous One solution reagent directly to culture wells, incubating for 1-4 hours and then recording the absorbance at 490 nm with a 96-well plate reader. […] The cells were seeded at 5×10^3 to 1.5×10^4 cells (depending on cell type) in each well of 96-well plate in 100 μL of fresh culture medium and adherent cells were allowed to attach for overnight. The stock solutions of the compounds were diluted in cell culture medium to obtain eight concentrations of each drug, ranging from 1 nM to 30 μM and DMSO at less than 1% v/v was used as a negative control. After 72 h of treatment 20 μl of CellTiter 96® AQueous reagent was added into each well of the 96-well assay plates and the plate was incubate at 37° C. for 1-4 hours in a humidified, 5% CO2 atmosphere. Then the absorbance of each well was recorded at 490 nm by using a 96-well plate reader. In most cases the assay was performed in triplicates and the results were presented as half maximal inhibitory concentration (IC50) described below. Optical density versus compound concentration was plotted and analyzed using non linear regression equations (Excel Fit) and the IC50 for each compound was calculated.

[4] = target: T1, CRM1 (Homo sapiens, UniProt O14980); experiment: RevGFP assay: inhibition of CRM1 mediated nuclear export; type: cell-based; details: U2OS-RevGFP cells, ~1 hr with compound; read-out: Rev Export [IC50]
T1 construct: endogenous in cells; host or cells: U2OS-RevGFP cells
T1 sequence (O14980 whole entry): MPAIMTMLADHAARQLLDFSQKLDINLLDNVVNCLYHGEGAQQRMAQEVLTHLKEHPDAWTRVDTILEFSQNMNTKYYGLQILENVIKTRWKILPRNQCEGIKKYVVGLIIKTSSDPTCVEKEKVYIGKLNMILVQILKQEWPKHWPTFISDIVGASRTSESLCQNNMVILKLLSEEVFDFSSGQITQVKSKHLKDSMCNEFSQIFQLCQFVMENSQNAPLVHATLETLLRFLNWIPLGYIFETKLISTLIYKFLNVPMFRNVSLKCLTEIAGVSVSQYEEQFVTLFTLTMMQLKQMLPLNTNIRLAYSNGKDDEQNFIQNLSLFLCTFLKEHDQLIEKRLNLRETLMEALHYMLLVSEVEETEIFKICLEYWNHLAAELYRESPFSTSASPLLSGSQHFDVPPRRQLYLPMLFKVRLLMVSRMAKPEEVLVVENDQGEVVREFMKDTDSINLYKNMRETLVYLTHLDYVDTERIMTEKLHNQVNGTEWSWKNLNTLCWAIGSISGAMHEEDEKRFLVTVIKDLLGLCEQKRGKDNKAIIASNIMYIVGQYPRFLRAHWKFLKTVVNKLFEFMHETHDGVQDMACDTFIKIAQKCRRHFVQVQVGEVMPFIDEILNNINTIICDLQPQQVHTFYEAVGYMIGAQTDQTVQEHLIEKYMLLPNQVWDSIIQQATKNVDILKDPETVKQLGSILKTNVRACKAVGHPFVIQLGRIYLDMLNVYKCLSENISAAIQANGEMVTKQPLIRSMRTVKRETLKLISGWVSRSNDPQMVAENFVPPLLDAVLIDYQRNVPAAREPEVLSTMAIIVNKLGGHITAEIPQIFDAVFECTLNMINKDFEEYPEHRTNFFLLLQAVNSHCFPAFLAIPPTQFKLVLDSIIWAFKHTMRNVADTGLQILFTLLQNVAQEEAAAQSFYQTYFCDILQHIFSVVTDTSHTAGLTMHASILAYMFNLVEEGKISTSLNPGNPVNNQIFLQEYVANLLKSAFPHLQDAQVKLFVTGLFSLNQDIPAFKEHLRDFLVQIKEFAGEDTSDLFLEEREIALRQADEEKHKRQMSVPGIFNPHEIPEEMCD
Experimental: The inhibition of CRM1 mediated nuclear export by compounds of the invention was determined. The inhibitory activity of compounds for the CRM1 protein was determined in the RevGFP assay.
Experimental protocol: Rev is a protein from human immunodeficiency virus type 1 (HIV-1) and contains a nuclear export signal (NES) in its C-terminal domain and a nuclear localization signal (NLS) in its N-terminal domain. Nuclear export of Rev protein is dependent on the classical NES/CRM1 pathway (Neville et al, 1997, Kau et al, 2003). Nuclear accumulation of Rev is observed in cells treated with specific inhibitors of CRM1, such as LMB (Kau et al, 2003). In this assay, U2OS-RevGFP cells are seeded onto clear-bottom, black, 384-well plates the day before the experiment. Compounds are serially diluted 1:2 starting from 40 μM in a separate 384-well plate in DMEM, and then transferred onto cells. Cells are incubated with compound for ˜1 hr before fixation with 3.7% formaldehyde and nuclei staining with Hoechst 33258. The amount of GFP in cell nuclei was measured and compound IC50s were determined (Kau et al, 2003).

[5] = Pharmacokinetics (plasma AUC) in mice; type: in vivo; details: mouse, 10 mg/kg po
Experimental: Blood was collected from mice (N=3) to contribute to the total of 10 time points (pre-dose, 5 min, 15 min, 30 min, 1 hour, 2 hours, 4 hours, 8 hours, 12 hours and 24 hours post dose). Mice were bled on a rotating basis, each mouse contributing 3 time points to the blood collection. At the designated time points, animals were anaesthetized under isoflurane, and approximately 110 μL of blood per time point was collected via retro-orbital puncture into pre-cooled K2EDTA (anti-coagulant) tubes. Blood samples were put on wet ice and centrifuged (2000 g, 5 min at 4° C.) to obtain plasma within 30 minutes of sample collection. All samples were stored frozen at approximately −80° C. until analysis. Prior to analysis, samples were mixed with internal standard (dexamethasone) in acetonitrile, vortexed, centrifuged, and supernatant was injected for analysis. Concentration of compounds in plasma was determined using LC-MS-MS instrumentation (API 4000, Triple Quadruple with electrospray ionization; Acuity Ultra Performance Liquid Chromatography column C18, with MeOH and formic acid as organic solvents). PK parameters including but not limited to Tmax, Cmax, t1/2, AUClast, AUCinf were calculated using WinNonlin Professional 6.2 software package, non-compartmental pharmacokinetic model NCA200.

[6] = system: A549 xenograft tumors; experiment: A549 lung carcinoma xenograft model; type: in vivo, CB-17 SCID mice; details: cisplatin 5 mg/kg IP (positive control)
Experimental: The A549 cell line was derived from explant culture of alveolar carcinoma tissue from a person. The cells were grown in Ham's F12-K tissue culture media with 10% fetal calf serum and 1% penicillin/streptomycin. Cells were routinely trypsinized and passaged 1:10. Thirty-two (32) female CB-17 SCID mice (Charles River Labs strain code 236), aged 5 to 6 weeks were used with a mean pre-treatment body weight of 16.3 grams. Mice were divided into four (4) groups of eight (8) prior to the initiation of treatment based on tumor volume. On the day of implantation, cells were washed in PBS, trypsinized and resuspended in complete media to a density of 2×10^7 cells/mL prior to being mixed with an equal volume of Matrigel. This mixture was then inoculated subcutaneously into mice in a volume of 0.1 mL using a 23 G needle.
Animal weights and condition were recorded daily, and tumors were measured on Mondays, Wednesdays and Fridays with micro-calipers, and tumor volume was calculated as (length×width×width)/2.
Animals with weight loss of more than 20% of their starting weight were euthanized. Mice with weight loss of more than 15% of their starting weight were not treated again until weight loss recovered to less than 5% of their starting weight. Any animals with a tumor volume of more than 1500 mm^3 were euthanized.
Dosing solutions were prepared fresh on each day of dosing. Compound 2 was supplied as a lyophilized powder containing 69.61% Compound 2 with the balance made up of Pluronic F-68 and PVP K29/32. This was prepared by dissolving the lyophilized powder in sterile water. Cisplatin was dissolved at 5 mg/mL in DMSO and diluted 1:10 in sterile water for injection. All test articles were administered in a volume of 0.1 mL/10 g body weight.
Statistical differences between treatment groups were determined using Mann-Whitney Rank Sum or ANOVA tests with a critical value of 0.05.

[7] = system: IMQ-induced psoriasis; experiment: Imiquimod (IMQ)-induced dermal inflammation/psoriasis model (Study 2); type: in vivo, BALB/c mice; details: Compound 2 2.5 mg/kg sc, cyclophosphamide 10 mg/kg oral
Experimental: Forty (40) male BALB/c mice (Biological E Limited, Hyderabad (CPCSEA registration number: 36/99/CPCSEA)) were divided into four (4) groups consisting of ten (10) mice each. Animals were randomized based on their body weight. The groups were designated as Group-I (Nave), Group-II (IMQ; vehicle (PEG 400 and HPBCD)), Group-III (IMQ; Compound 2 (2.5 mg/kg)) and […] (IMQ; cyclophosphamide (10 mg/kg)).
A small area on the dorsum of each mouse was shaved, ensuring that these areas were of equal size/area. Psoriasis was induced in Groups II to IV by topical application of 50 mg of IMQ cream daily from Day 1 to Day 6 on the dorsum of the animals. On Day 1 and Day 2 of the study, four hours after topical application of IMQ, Compound 2 or positive control (cyclophosphamide) or vehicle were administered to animals in pertinent groups. Of note, animals in Group II and Group III were subjected to subcutaneous injections, whereas animals in Group IV received oral administration. The Compound 2, vehicle and cyclophosphamide treatment was terminated on Day 2. These groups of animals were maintained on daily IMQ treatments until Day 6. On Day 7, the psoriasis-induced animals were re-randomized into 3 groups consisting of 10 animals each based on Cumulative Disease Activity Index (CDAI). From Day 7 to Day 9, animals received vehicle or positive control or Compound 2. Of note, on these days animals were not treated with IMQ. From Day 10 to Day 14, the animals were treated alternatively with IMQ (Days 10, 12 and 14), or vehicle, positive control or Compound 2 (Days 11, 13).
All animals were observed daily for a period of […] for gross observations, body weight and feed and water intake. On Days 1 and 2, scorings of erythema, scaling, folding and thickening of skin were recorded 2 hours after administration of vehicle/positive control/test compounds, and on Days 3 to 14 scorings were recorded 4 hours after IMQ application, or administration of positive control, vehicle or Compound 2.
Vehicle was prepared by dissolving 40 mg of HPBCD in 70.0 mL of distilled water. Compound 2 was prepared by dissolving 3.59 mg in 0.5% PVP and 0.5% Pluronic. Cyclophosphamide was prepared by dissolving 500 mg of CMC in 100 mL distilled water.
The experimental results shown in Table 10 are expressed as mean±SEM. Data was assessed using one-way ANOVA, and post hoc analysis was performed using Dunnett's test.

| Compound | AUC(0-inf) [1] | IC50 at 72 h [3] | IC50 [4] | further results |
| --- | --- | --- | --- | --- |
| CC(C)OC(=O)/C=C\n1cnc(-c2cc(OC(C)C)cc(C(F)(F)F)c2)n1 [Compound X-2] | 68.3 ng·h/mL | < 1000 nM | < 1000 nM | B:P [2]: moderate brain to plasma ratio; Kp at 2 h ([2]; rat, brain and plasma): 1.27 |
| O=C(/C=C\n1cnc(-c2cc(C(F)(F)F)cc(C(F)(F)F)c2)n1)N1CC(F)(F)C1 [Compound X-3, reference compound] | 12300 ng·h/mL | < 1000 nM | < 1000 nM | AUC(0-inf) [5]: 12300 ng·h/mL |
| N.N.[Cl][Pt][Cl] [cisplatin, reference compound] | – | – | – | tumor volume AUC compared to vehicle control (one-way ANOVA) [6]: no statistically significant reduction in tumor growth |
| O=P1(N(CCCl)CCCl)NCCCO1 (stereo not drawn) [cyclophosphamide, reference compound] | – | – | – | Rate of reduction of DAI, % change from 1st dose administration ([7]; Day 7, pre-IMQ/drug administration readings): 0.0%; Rate of reduction of DAI, % change from 1st dose administration ([7]; Day 10, 4 hr. post-IMQ/drug administration readings): −86.0% |
